The record followed here is publication PMC11568388 (Molecular Biology and Evolution, 2024).

For this test, the system named is Aplysia californica. The class given is in vivo.

Turning to `NCC(O)c1ccc(O)cc1` (stereo not shown) [octopamine], the “Behavior vs saline-injected control” value (in vivo) is “did not alter A. californica behavior significantly different from control”.

As to `NCCc1c[nH]c2ccc(O)cc12` [serotonin], for the setting “in vivo”, the Behavioral phenotype entry is “notable inability of the animal's foot to completely stick to the tank wall, resulting in impaired locomotion” and the “Onset of behavioral phenotype after injection” value is ≤ 1 min. Besides, the Locomotion result (n = 3) is reported as “immediate hyperlocomotive phenotype”.
